Test results: US8710068B2, “Method of treating cancer using a survivin inhibitor” (The Trustees Of The University Of Pennsylvania, priority 2009, dated 2014)

Columns and labels:
[1] = Western blot for PARP cleavage (caspase activation) and Survivin levels, HeLa; format: cell-based, human; conditions: 50 μg/ml, 12 hours, anti-Survivin Western blot
Experimental: (§1) FIG. 12 illustrates S12 induction of caspase activation in HeLa cells. (A) HeLa cells were incubated with DMSO (control), S12, Taxol, nocodazole (Noco), or etoposide (Etop) for 12 hours. The cell lysates were analyzed by Western blot using the anti-PARP antibody (top panel), the anti-α-tubulin antibody (middle panel), or the anti-Survivin antibody (bottom panel). (B) S12 causes cell death in a cell cycle dependent manner. HeLa cells, either unsynchronized or synchronized by thymidine treatment were incubated either with S12 or DMSO. Cell death was quantitated by trypan blue exclusion assay.
(§2) We examined whether S12 treatment leads to apoptosis. HeLa cells were incubated with S12 at the concentration of 50 μg/ml or with DMSO alone for 12 hours. To compare the effect with that of other therapeutic agents, HeLa cells were also treated with Taxol, nocodazole, or etoposide, respectively. The cell lysates were collected and subjected to Western blot analysis using an anti-PARP antibody. […] We also re-probed the blot with an anti-Survivin antibody. […] These observations, combined with the earlier findings, indicate that the Survivin-targeting molecule S12 can block mitosis and cause apoptosis.

[2] = test system: PARP; experiment: as above; format: cell-based, human; conditions: 12 hours
Experimental: as §1, §2

[3] = test system: HeLa cells; experiment: Cell cycle analysis of DNA content by PI staining and FACS, HeLa; format: cell-based, human; conditions: HeLa, FACS DNA content
Experimental: FIG. 7 illustrates the effect of S2 or S12 on cell cycle progression. HeLa cells were treated with S2, S12, S10, S1 (control compound), or DMSO (control), propidium iodide (PI) staining and FACS analysis were performed to quantify the DNA content of cells.
FIG. 9 illustrates the effect of S12 on mitosis. (A) HeLa cells were treated with S12, S2 or DMSO for 15 hours. The cells were then fixed and subjected to immunostaining using antibodies specific for Aurora B (green) and Survivin (red). DNA was stained with DAPI. Chromosome misalignment is indicated with the arrowheads. (B) Percentage of S12-treated cells in mitosis, in metaphase, in anaphase/telophase, or with misaligned chromosomes. (C) Percentage of S2-treated cells in mitosis, in metaphase, in anaphase/telophase, or with misaligned chromosomes. (D) HeLa cells were treated with S12 (10 μg/ml) or DMSO (control) for 15 hours. Cells were examined by PI staining of DNA content by FACS analysis.
FIG. 17 illustrates (A) FACS analysis of DNA content of HeLa cells treated with SBDO3. Note the accumulation of cells at the G2/M stage. Cell death was also observed (sub-G1 population); (B) Immuno-fluorescence microscopy analysis of cell treated with SBDO3. Note that the microtubule bundles of the mitotic spindle are disorganized. The chromosomes are not aligned properly and cells cannot go through metaphase.
The candidate Survivin-targeting molecules identified by the virtual screen were examined for the ability to inhibit cell proliferation and mitosis. HeLa cells were treated with the compounds at various concentrations for 15 hours followed by examination of the DNA content by FACS analysis. […] The effects of S2 inflicted on cell proliferation and viability are consistent with the anticipated outcome caused by the ablation of Survivin functions. We have extended these studies to test a number of molecules that are structurally similar to S2, including S10, S11, S12 and S13. […] S12 affected cell proliferation and viability, consistent with the anticipated outcome caused by ablation of Survivin functions.
We analyzed distribution of cells in the different stages of the cell cycle by FACS. […] In addition, the inhibitory effect of SBDO3 is dose dependent (FIG. 17A).
We also conducted immuno-fluorescence studies on SBDO3 treated HeLa cells.

[4] = molecular target: T1, Sur-F86A (Homo sapiens, UniProt O15392, F86A); experiment: ITC binding to Survivin mutant F86A; conditions: in words
T1 construct: made in house; host or cells: bacteria
T1 sequence (O15392 whole entry F86A): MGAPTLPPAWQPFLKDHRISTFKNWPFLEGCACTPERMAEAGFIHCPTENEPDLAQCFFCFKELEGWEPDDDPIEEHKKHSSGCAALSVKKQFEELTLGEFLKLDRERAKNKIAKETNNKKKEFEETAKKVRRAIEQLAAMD
Experimental: (§3) FIG. 5 illustrates an analysis of S12-Survivin binding with isothermal titration calorimetry (ITC). Single-site point mutagenesis was performed to create the Survivin mutants F86A and V89Y. The native and the mutant proteins were produced and purified from bacteria.
(§4) In order to examine the specificity of the binding, we generated point mutations on the Survivin protein at the site presumably targeted by S12. The two mutations were substitutions of phenylalanine 86 with alanine (F86A) and valine 89 with tyrosine (V89Y). These two altered sites are also adjacent to the interface involved in dimerization of the Survivin protein. Based on structural analyses, we predict that alterations of either of these two amino acid residues may abolish the binding of S12 without affecting the overall structure of the Survivin protein.

[5] = molecular target: T2, Survivin protein (Homo sapiens, UniProt O15392); experiment: Isothermal titration calorimetry (ITC) binding to native Survivin
T2 construct: made in house; host or cells: bacteria
T2 sequence (O15392 whole entry): as the sequence (O15392 whole entry F86A) above, with A86F counted along it
Experimental: as §3
FIG. 16 illustrates the isothermal titration calorimetry profile of the binding of SBDO3 to the Survivin homodimer.
as §4
We tested the binding of the Survivin target molecules to Survivin by isothermal titration calorimetry.

## O=C(CC1(O)C(=O)Nc2ccc(Br)cc21)c1ccc2c(c1)OCO2 (stereo not drawn) [S12]
[1]
  overall Survivin levels: did not significantly affect
[2]; 50 μg/ml, Western blot
  cleavage of PARP (caspase activation): detected
[2]; at the concentrations employed
  apoptosis induction compared with other agents: more potent in inducing apoptosis than Taxol, nocodazole, or etoposide
[3]; 15 hours
  accumulation of cells in the G2/M stage: accumulation of cells in the G2/M stage
[3]
  sub-G1 population (cell death): increase of cells in the sub-G1 population
[4]
  binding to mutant Sur-F86A: did not bind
[5]; ITC, in words
  binding to the Survivin protein: can bind to the Survivin protein
[5]; isothermal titration calorimetry, native Survivin
  N (ITC stoichiometry): 1.00
[5]; isothermal titration calorimetry, native Survivin, read-out: K (ITC binding constant) (converted)
  Kd: 224 nM
